In article PMC7115513 (European Journal of Medicinal Chemistry, 2012):
Read-outs that look alike come from different tables or passages of the source. Marks after values point to notes of the source that are not given here.

Key:
[1] = test system: Madin Darby canine kidney (MDCK) cells
[2] = assay type: binding; conditions: heme 2.4 μM, DMSO:H2O/4:6, v/v; increasing compound concentration
[3] = pH 5.8; cited from earlier work
P. falciparum CQ^R (K1) = experiment: microbe, parasite or virus in culture; assay type: cell-based, Plasmodium falciparum
[4] = pH 5.6; cited from earlier work
P. falciparum CQ^S (3D7) = assay type: cell-based, Plasmodium falciparum; conditions: read-out: IC50 CQ^S (3D7); CQ sensitive strain; primary screening
GC rich CT DNA = assay type: binding, calf

Compound | Cytotoxicity MIC ([1]; dog) | further results
Oseltamivir carboxylate [reference compound] |  | CC50 [1]: > 100000 nM; Cytotoxicity MIC [1]: h 50% cytotoxic concentration, as determined by measuring the cell viability with the colorimetric formazan- based MTS assay (reference drugs used: Oseltamivir carboxylate CC50/MIC >100, Ribavirin CC50/MIC >100, Amantadine CC50/MIC >200 and Rimantadine CC50/MIC >200). μM
CCOC(=O)c1c(C)nc(NCCCNc2ccnc3cc(Cl)ccc23)nc1-c1ccccc1 [Compound 10b, 5-Ethoxycarbonyl-6-methyl-4-phenyl-2-[(7-chloroquinolin-4-ylamino)propylamino]pyrimidine] | 0.8 µM | 
CCOC(=O)c1c(C)nc(Nc2ccccc2Nc2ccnc3cc(Cl)ccc23)nc1-c1ccccc1 [Compound 10h, 5-Ethoxycarbonyl-6-methyl-4-phenyl-2-[2-(7-chloroquinolin-4-ylamino)phenylamino] pyrimidine] |  | change in heme absorbance at 402 nm on titration [2]: no change in the absorbance at 402 nm
CCN(CC)CCCC(C)Nc1ccnc2cc(Cl)ccc12 (stereo not drawn) [Compound 2, chloroquine, reference compound] |  | μ-oxo heme log K [3]: 5.6 ^c; IC50 (P. falciparum CQ^R (K1); Plasmodium falciparum, K1, read-out: IC50 CQ^R (K1)): 202 nM; Monomeric heme log K [4]: 4.82
5-Ethoxycarbonyl-6-methyl-4-phenyl-2-[5-(7-chloroquinolin-4-ylamino)-2-methylpentylamino] pyrimidine [Compound 10k] |  | IC50 (P. falciparum CQ^R (K1); read-out: IC50 CQ^R (K1)): 860 nM; IC50 (P. falciparum CQ^S (3D7)): 287 nM
Cc1nc(NCCCCNc2ccnc3cc(Cl)ccc23)nc(-c2ccccc2[N+](=O)[O-])c1C(=O)OC(C)C [Compound 10r, 5-Isopropyloxycarbonyl-6-methyl-4-(2-nitrophenyl)-2-[(7-chloroquinolin-4-ylamino)butylamino] pyrimidine] | 4.0 µM | binding constant (log K) from fluorescence data, CT DNA (GC rich CT DNA): 4.67
Cc1nc(NCCCNc2ccnc3cc(Cl)ccc23)nc(-c2cccc([N+](=O)[O-])c2)c1C(=O)OC(C)C [Compound 10n, 5-Isopropyloxycarbonyl-6-methyl-4-(3-nitrophenyl)-2-[(7-chloroquinolin-4-ylamino)propylamino]pyrimidine] | 0.8 µM | 
CCOC(=O)c1c(C)nc(NCCCCNc2ccnc3cc(Cl)ccc23)nc1-c1ccccc1 [Compound 10c, 5-Ethoxycarbonyl-6-methyl-4-phenyl-2-[(7-chloroquinolin-4-ylamino)butylamino]pyrimidine] | 0.8 µM | 
CCOC(=O)c1c(C)nc(Nc2ccc(Nc3ccnc4cc(Cl)ccc34)cc2)nc1-c1ccccc1 [Compound 10i, 5-Ethoxycarbonyl-6-methyl-4-phenyl-2-[4-(7-chloroquinolin-4-ylamino)phenylamino] pyrimidine] |  | change in heme absorbance at 402 nm on titration [2]: marked gradual decrease in absorbance at 402 nm
NC(=O)c1ncn([C@@H]2O[C@H](CO)[C@@H](O)[C@H]2O)n1 [Ribavirin, reference compound] | h 50% cytotoxic concentration, as determined by measuring the cell viability with the colorimetric formazan- based MTS assay (reference drugs used: Oseltamivir carboxylate CC50/MIC >100, Ribavirin CC50/MIC >100, Amantadine CC50/MIC >200 and Rimantadine CC50/MIC >200). μM | 
NC12CC3CC(CC(C3)C1)C2 [Amantadine, reference compound] | h 50% cytotoxic concentration, as determined by measuring the cell viability with the colorimetric formazan- based MTS assay (reference drugs used: Oseltamivir carboxylate CC50/MIC >100, Ribavirin CC50/MIC >100, Amantadine CC50/MIC >200 and Rimantadine CC50/MIC >200). μM | 
CCOC(=O)c1c(C)nc(NCCNc2ccnc3cc(Cl)ccc23)nc1-c1ccccc1 [Compound 10a, 5-Ethoxycarbonyl-6-methyl-4-phenyl-2-[(7-chloroquinolin-4-ylamino)ethylamino] pyrimidine] | 0.8 µM | 
CC(N)C12CC3CC(CC(C3)C1)C2 (stereo not drawn) [Rimantadine, reference compound] | h 50% cytotoxic concentration, as determined by measuring the cell viability with the colorimetric formazan- based MTS assay (reference drugs used: Oseltamivir carboxylate CC50/MIC >100, Ribavirin CC50/MIC >100, Amantadine CC50/MIC >200 and Rimantadine CC50/MIC >200). μM | 
CCOC(=O)c1c(C)nc(NCCCNc2ccnc3cc(Cl)ccc23)nc1C [Compound 10l, 5-Ethoxycarbonyl-6-methyl-4-methyl-2-[(7-chloroquinolin-4-ylamino)propylamino]pyrimidine] | 20 µM | 
Cc1nc(NCCNc2ccnc3cc(Cl)ccc23)nc(-c2ccccc2[N+](=O)[O-])c1C(=O)OC(C)C [Compound 10p, 5-Isopropyloxycarbonyl-6-methyl-4-(2-nitrophenyl)-2-[(7-chloroquinolin-4-ylamino)ethylamino] pyrimidine] | ≥0.8 µM | 
CCOC(=O)c1c(C)nc(NCCCCNc2ccnc3cc(Cl)ccc23)nc1C [Compound 10m, 5-Ethoxycarbonyl-6-methyl-4-methyl-2-[(7-chloroquinolin-4-ylamino)butylamino]pyrimidine] | 4 µM | 
